Test results reported in patent publication US10765638B2, “Particle formulation with polycation complex” (Yale University, priority 2017, dated 2020).

Legend:
SKMG3 cells = assay: Radiation clonogenic survival assay; type: cell-based, human
Protocol: Radiation (XRT) doses of either 0, 2, 4, or 6 Gy were delivered with a Precision X-ray 320-kV orthovoltage unit at a dose rate of 2 Gy/45 seconds (PXI X-Ray Systems). Twenty-four hours following XRT cells were washed, trypsinized, and re-plated in triplicate wells to determine clonogenic survival. […] Growth rates were determined by CellTiter 96 Non-Radioactive Cell Proliferation Assay (Promega; Madison, Wis., USA) according to the manufacturer's directions. For each experiment one thousand cells were seeded in triplicate wells in 96-wells plates. The following day, cell cultures were treated with NGI-1 (1 μM), Temozolomide (TMZ, 10 μM), Etoposide (VP-16, 0.1 μM) or combinations for 5 days. Absorbance at 540 nm was measured using the spectrophotometric reading (BioTek Synergy 2; Winooski, Vt. USA).

SKMG3-CD8-EGFR cells = assay: Phospho-γH2AX foci formation; type: cell-based, human
Protocol: To determine histone H2AX phosphorylation (γH2AX), cells were cultured on glass cover slips and pre-treated with either vehicle or NGI-1 for 48 hours followed by radiation treatment. Samples were fixed with 4% neutral-buffered formaldehyde, washed (0.1% triton in PBS for 30 minutes) and incubated for 1 hour with protein-blocking solution (PBS containing 10% normal goat-horse serum; Sigma-Aldrich, Saint Louis, Mich., US). Next, the slides were incubated with primary anti-phospho-histone γH2AX S139 (1:500, Millipore-Upstate, Billerica, Mass., US) followed by incubation with secondary antibody Alexa Fluor 555-conjugated goat anti-mouse IgG (1:750, Molecular probes/Invitrogen, Carlsbad, Calif., US), for 1 hour at room temperature. Nuclei were stained using DAPI containing vectashield mounting solution (Vector Labs). Confocal cellular images were captured with an inverted Zeiss LSM 510 Pascal laser confocal microscope (C. Zeiss, Jenna, Germany), using a 63/1.4 plan-apochromat objective. Five randomly selected fields s per slide were analyzed. Cells were counted using the ImageJ program, public domain Java image processing software.
The CD8 cDNA was a gift from Paula Kavathas (Yale University). The CD8-EGFR was constructed according to a strategy that generated a constitutively active IGF-1R (24). […]

AKT = assay: Radiation-induced AKT activation; type: cell-based
LC-1F = assay: Lung cancer cell line viability screen; type: cell-based; details: NSCLC, read-out: NGI-1 (IC50)
Protocol: (§1) NGI-1 activity was screened in 94 lung cancer cell lines at the Center for Molecular Therapeutics at the Massachusetts General Hospital Center for Cancer Research with previously described methods (Garnett et al., Nature, 483(7391):570-5 (2012)). Briefly, cells were treated in 384-well microplates using 9 serial NGI-1 dilutions, returned to an incubator for 96 hours, then stained with 55 μg/ml resazurin (Sigma) prepared in Glutathione-free media for 4 hours. Fluorescent signal intensity was quantified with a plate reader at excitation and emission wavelengths of 535/595 nm to determine viability. Viability ratio across the 9 doses were fitted to determine the half maximal inhibitory concentration (IC50).

NCI-H1838 = assay: Lung cancer cell line viability screen; type: cell-based; details: Homo sapiens; NCI-H1838, NSCLC, EGFR amplified; read-out: NGI-1 (IC50)
Protocol: as §1

HCC827-GR cells [1] = assay: Apoptosis by Annexin V flow cytometry; type: cell-based; details: NGI-1 treatment alone
Protocol: First-line analysis was performed with Flow Jo software. Approximately 50,000 cells were analyzed per experiment, and the mean value was obtained from 3 independent assays.

HCC827-GR cells [2] = assay: Confocal microscopy of EGFR and phosphorylated MET localization; type: cell-based; details: detected in control samples
Protocol: For immunofluorescence, HCC827-GR cell lines were grown on glass coverslips to 80% confluence. Cell cultures were washed with PBS and fixed with 4% (w/v) formaldehyde in PBS for 30 min at 37° C. After washing with PBS, cells were permeabilized with 0.1% v/v Triton X-100 in PBS for 10 min, rinsed three times in PBS and treated with 5% w/v bovine serum albumin for 1 h. Cells were then incubated overnight at 4° C. with mouse anti-EGFR pAb (sc-03; Santa Cruz Biotechnology; 1:800) and rabbit anti-MET mAb (Cell Signaling; 1:1,000) primary antibodies and for 1 h at room temperature with either Alexa Fluor 543-conjugated goat anti-rabbit IgG or Alexa Fluor 488-conjugated goat anti-mouse IgG (ThermoFisher Scientific; 1:1,000) secondary antibodies. All antibodies were diluted in PBS containing 5% w/v bovine serum albumin. Nuclei were stained using ToPro3 (Invitrogen). Confocal cellular images were captured with an inverted Zeiss LSM 510 Pascal laser confocal microscope (Carl Zeiss, Jenna, Germany), using a 63/1.4 Plan-Apochromat objective.

PC9-ERLucT cells = assay: ER-LucT glycosylation reporter luciferase assay in vitro; type: cell-based; details: after 24 h, equivalent concentrations of NGI-1 dissolved in DMSO or via NP
From the text: To test the hypothesis that NGI-1 could enhance TKI therapy in EGFR mutant and TKI resistant NSCLC, a NGI-1 nanoparticle (NGI-NP) formulation was developed by nanoprecipitation of a NGI-1 PEI complex. All nanoparticle preparations were confirmed by DLS and the average particle size was 120±10 nm. To assess the activity of the NGI-1 NPs a PC9 cell line with stable expression of the ER-LucT glycosylation reporter (Contessa at al., Clin Cancer Res., 16(12):3205-14 (2010)), a luciferase engineered to be expressed in the endoplasmic reticulum with N-linked glycosylation sites, was established. Under normal cell conditions glycosylation of the luciferase blocks activity and luminescence. However, under conditions of decreased glycosylation luciferase activity is restored with a measurable increase in luciferase activity. Equivalent concentrations of NGI-1, either dissolved in DMSO or via NP, activated luminescence˜6 fold after 24 h in these PC9-ERLucT cells in vitro (FIG. 13A).

FGFR1 dependent H1580 = details: Lopez-Sambrooks et al., Nat Chem Biol. 2016; cited from earlier work
[3] = tested on: non-transformed cell lines, primary human dermal fibroblasts, and neural progenitor cells; details: Lopez-Sambrooks 2016, Hafirassou 2017, Puschnik 2017; cited from earlier work

With `Cc1cnc(NC(=O)c2cc(S(=O)(=O)N(C)C)ccc2N2CCCC2)s1` [NGI-1, 5-(dimethylsulfamoyl)-N-(5-methyl-1,3-thiazol-2-yl)-2-(pyrrolidin-1-yl)benzamide] the “dose enhancement factor (DEF) at a surviving fraction of 0.4” value (SKMG3 cells; 10 μM NGI-1) was 1.2, the “survival fraction at 2 Gy (SF2Gy)” value (SKMG3 cells; 10 μM NGI-1 48 hours before radiation, 87% without NGI-1) was 77% and the phospho-γH2AX foci formation (SKMG3-CD8-EGFR cells) was “no effect”. The “radiation-induced activation of AKT” value (AKT; CD8-EGFR expressing SKMG3 cells) was “not in the CD8-EGFR expressing SKMG3 cells”, the AKT activation (AKT; T98G cells) was “does not block AKT activation” and the “radiation-induced activation of AKT” value (AKT; parental SKMG3 cells) was “blocks”. The IC50 (LC-1F) was 7.94 µM, the IC50 (NCI-H1838) was 4.29 µM and the induction of apoptosis (HCC827-GR cells [1]) was “not sufficient to induce apoptosis”. For the same compound, the “EGFR detected near the cell surface” value (HCC827-GR cells [2]) was “not in NGI-1 treated samples”, the “activation of luminescence (luciferase activity)” value (PC9-ERLucT cells) was roughly 6 fold and the “sensitivity to OST inhibition with NGI-1” value (FGFR1 dependent H1580) was “sensitive”. The toxicity [3] was “no significant toxicity”.
